Data set [1] has as its system B16 skin tumors. As to the kind of experiment: B16 melanoma model: established skin tumors treated with MNAs. As to conditions: MNA once weekly for three weeks; for tumor growth: compared to untreated tumor bearing animals; for survival: untreated animals 100% mortality.
Protocol: The B16 melanoma model was used as a model tumor to test these novel approaches.
Visible established cutaneous tumors were treated once weekly for three weeks with MNAs containing either doxorubicin alone, Poly(I:C) alone, or doxorubicin and Poly(I:C) incorporated into the same MNA. The doxorubicin dose chosen corresponds to an MNA dose that induces apoptosis in human skin without causing necrosis. Tumor growth and survival were measured regularly for the duration of the study.
The test system of data set [2] is epidermal cells of living human skin explants. The note with it: 5 mg/g of CMC; arrays removed after 5 minutes; 72 hours of exposure. As to the method:
Cytoxan® was integrated at a concentration of 5 mg/g of CMC, enabling delivery of approximately about 140 μg per array. This is a therapeutically relevant concentration based on the area of skin targeted, yet well below levels associated with systemic toxicities. Living human skin organ cultures were used to assess the cytotoxicty of Cytoxan®. Cytoxan® was delivered by application of arrays to skin explants as we previously described. Arrays and residual material were removed 5 minutes after application, and after 72 hours of exposure, culture living skin explants were cryo-sectioned and fixed. Apoptosis was evaluated using green fluorescent TUNEL assay (In Situ Cell Death Detection Kit, TMR […], Roche, cat #:11-684-795-910).

A short description of data set [3]: Dye release from MNAs inserted into 4% agar test-gels. The class given is physicochemical. The note with it: dually loaded MNA. The text has this:
To illustrate the delivery of multiple drugs with distinct release kinetics, MNAs were fabricated to delivery two distinct cargos by distinct release kinetics. Specifically, MNAs were fabricated to release the marker Toluidine Blue in an initial burst, followed by a sustained release of the marker FD&C Red40. Dyes were directly loaded in the MNA scaffold matrix (in this case CMC) of the needle tips and in some cases a second dye, encapsulated in a sustained release polymer was layer directly below. MNAs were inserted into 4% agar test-gels and removed after 1 min.
Images of dye diffusion were collected at the indicated time points (FIG. 39A). […] Alternatively, MNAs were fabricated with toluidine blue tip-loaded and FD&C Red40 encapsulated in a sustained release polymer (FIG. 39C). MNAs were inserted into 4% agar test-gel and removed after 1 min. Images were collected at the indicated time-points. […] Upper panels depict images of microneedles from MNAs before application. The middle images are the imprints of the arrays 1 minute after application and MNA removal. Lower panels depicted the indicated representative magnified images at the indicated time points.

For the compound `COc1cccc2c1C(=O)c1c(O)c3c(c(O)c1C2=O)C[C@@](O)(C(=O)CO)C[C@@H]3O[C@H]1C[C@H](N)[C@H](O)[C@H](C)O1` [doxorubicin], in data set [1], the tumor growth entry is “slowed tumor growth” and the survival turned out to be 30%.
As for `O=P1(N(CCCl)CCCl)NCCCO1` (centres unmarked) [Cytoxan®, cyclophosphamide], the “apoptosis of epidermal cells (TUNEL)” value in data set [2] is “extensive apoptosis of epidermal cells”.
For the compound `COc1cc(S(=O)(=O)[O-])c(C)cc1N=Nc1c(O)ccc2cc(S(=O)(=O)[O-])ccc12.[Na+].[Na+]` [FD&C Red40], in data set [3] (dye encapsulated in a sustained release polymer), the “release of encapsulated dye” value is reported as “released slowly over an extended time period”. The “period of release from depot” value in data set [3] (dye in underlying layer of sustained release polymer) came to 10 days.
In the case of Poly(I:C), in data set [1], the tumor growth entry is “slowed tumor growth” and the survival was 50%.
For `Cc1cc2nc3ccc(N(C)C)cc3[s+]c2cc1N.[Cl-]` [Toluidine Blue], the “release of tip-loaded dye” value in data set [3] (dye in CMC in the needle tip) was “released in an initial burst”.

The values are drawn from patent US11684763B2, “Multi-component bio-active drug delivery and controlled release to the skin by microneedle array devices” (University of Pittsburgh—Of the Commonwealth System of …, priority 2015, dated 2023).
